# Source: ChEMBL document CHEMBL1136528, “Novel pyrrolyllactone and pyrrolyllactam indolinones as potent cyclin-dependent kinase 2 inhibitors” (Bioorg Med Chem Lett, 2003)
# Key:
# [1] = target: Cyclin-dependent kinase 2 (Homo sapiens, UniProt P24941); assay: Inhibitory activity against Cyclin-dependent kinase 2
# [2] = target: Platelet-derived growth factor receptor beta (Homo sapiens, UniProt P09619); assay: Inhibitory activity was tested against Platelet-derived growth factor receptor beta
# [3] = target: Vascular endothelial growth factor receptor 2 (Homo sapiens, UniProt P35968); assay: Inhibitory activity was tested against FLK kinase
# Chain of Vascular endothelial growth factor receptor 2 (P35968 whole entry): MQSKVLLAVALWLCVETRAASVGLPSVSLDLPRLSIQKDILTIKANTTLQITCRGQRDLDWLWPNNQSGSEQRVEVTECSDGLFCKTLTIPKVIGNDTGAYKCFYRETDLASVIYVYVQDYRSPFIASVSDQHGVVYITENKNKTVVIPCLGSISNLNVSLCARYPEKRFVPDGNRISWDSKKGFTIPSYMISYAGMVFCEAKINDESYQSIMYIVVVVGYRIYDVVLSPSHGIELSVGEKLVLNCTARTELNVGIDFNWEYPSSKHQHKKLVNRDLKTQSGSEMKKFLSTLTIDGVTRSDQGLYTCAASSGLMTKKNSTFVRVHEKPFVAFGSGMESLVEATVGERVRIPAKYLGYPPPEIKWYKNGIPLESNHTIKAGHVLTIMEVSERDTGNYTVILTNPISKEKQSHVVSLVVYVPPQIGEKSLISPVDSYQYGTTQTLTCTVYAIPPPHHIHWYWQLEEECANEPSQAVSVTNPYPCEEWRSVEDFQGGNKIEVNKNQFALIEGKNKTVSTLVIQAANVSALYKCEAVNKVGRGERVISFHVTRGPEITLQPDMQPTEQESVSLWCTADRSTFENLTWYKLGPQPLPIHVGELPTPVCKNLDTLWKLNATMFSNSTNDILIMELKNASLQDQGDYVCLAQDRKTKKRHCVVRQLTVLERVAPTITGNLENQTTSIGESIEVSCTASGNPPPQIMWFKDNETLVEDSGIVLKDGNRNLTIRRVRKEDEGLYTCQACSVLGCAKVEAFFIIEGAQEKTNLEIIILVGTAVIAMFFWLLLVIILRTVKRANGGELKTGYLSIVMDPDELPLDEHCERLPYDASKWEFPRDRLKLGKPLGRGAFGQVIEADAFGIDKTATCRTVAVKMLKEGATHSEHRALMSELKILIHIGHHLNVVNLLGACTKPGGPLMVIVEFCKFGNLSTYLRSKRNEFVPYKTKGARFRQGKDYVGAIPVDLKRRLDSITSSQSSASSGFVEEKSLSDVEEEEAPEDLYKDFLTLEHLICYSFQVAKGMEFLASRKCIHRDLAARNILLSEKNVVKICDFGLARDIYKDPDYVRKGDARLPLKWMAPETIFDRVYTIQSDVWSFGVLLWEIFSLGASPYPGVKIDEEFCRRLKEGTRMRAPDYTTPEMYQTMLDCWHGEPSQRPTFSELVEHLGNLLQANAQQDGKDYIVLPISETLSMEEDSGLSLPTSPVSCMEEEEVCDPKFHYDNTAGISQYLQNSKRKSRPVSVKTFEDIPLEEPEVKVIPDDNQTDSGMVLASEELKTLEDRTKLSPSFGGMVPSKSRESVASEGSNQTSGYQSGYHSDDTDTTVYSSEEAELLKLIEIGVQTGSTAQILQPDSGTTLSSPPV
# [4] = target: Proto-oncogene tyrosine-protein kinase Src (Homo sapiens, UniProt P12931); assay: Inhibitory activity was tested against Src protein tyrosine kinase
# Chain of Proto-oncogene tyrosine-protein kinase Src (P12931 2-536 limits assumed): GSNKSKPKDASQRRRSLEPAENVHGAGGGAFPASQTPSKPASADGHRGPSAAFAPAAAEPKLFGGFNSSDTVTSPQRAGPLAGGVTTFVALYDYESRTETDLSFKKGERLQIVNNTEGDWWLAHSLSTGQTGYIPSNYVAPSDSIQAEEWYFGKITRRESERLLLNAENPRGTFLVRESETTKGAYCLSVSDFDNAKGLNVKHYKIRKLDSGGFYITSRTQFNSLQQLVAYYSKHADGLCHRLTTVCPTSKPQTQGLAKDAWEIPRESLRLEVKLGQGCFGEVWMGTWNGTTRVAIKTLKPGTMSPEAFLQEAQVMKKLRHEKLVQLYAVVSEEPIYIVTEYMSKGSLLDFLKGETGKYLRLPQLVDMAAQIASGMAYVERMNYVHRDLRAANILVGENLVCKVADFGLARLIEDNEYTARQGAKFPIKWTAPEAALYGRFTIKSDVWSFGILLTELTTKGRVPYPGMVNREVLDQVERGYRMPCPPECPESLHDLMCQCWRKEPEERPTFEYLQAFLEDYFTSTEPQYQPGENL
# Chain of Platelet-derived growth factor receptor beta (P09619 whole entry): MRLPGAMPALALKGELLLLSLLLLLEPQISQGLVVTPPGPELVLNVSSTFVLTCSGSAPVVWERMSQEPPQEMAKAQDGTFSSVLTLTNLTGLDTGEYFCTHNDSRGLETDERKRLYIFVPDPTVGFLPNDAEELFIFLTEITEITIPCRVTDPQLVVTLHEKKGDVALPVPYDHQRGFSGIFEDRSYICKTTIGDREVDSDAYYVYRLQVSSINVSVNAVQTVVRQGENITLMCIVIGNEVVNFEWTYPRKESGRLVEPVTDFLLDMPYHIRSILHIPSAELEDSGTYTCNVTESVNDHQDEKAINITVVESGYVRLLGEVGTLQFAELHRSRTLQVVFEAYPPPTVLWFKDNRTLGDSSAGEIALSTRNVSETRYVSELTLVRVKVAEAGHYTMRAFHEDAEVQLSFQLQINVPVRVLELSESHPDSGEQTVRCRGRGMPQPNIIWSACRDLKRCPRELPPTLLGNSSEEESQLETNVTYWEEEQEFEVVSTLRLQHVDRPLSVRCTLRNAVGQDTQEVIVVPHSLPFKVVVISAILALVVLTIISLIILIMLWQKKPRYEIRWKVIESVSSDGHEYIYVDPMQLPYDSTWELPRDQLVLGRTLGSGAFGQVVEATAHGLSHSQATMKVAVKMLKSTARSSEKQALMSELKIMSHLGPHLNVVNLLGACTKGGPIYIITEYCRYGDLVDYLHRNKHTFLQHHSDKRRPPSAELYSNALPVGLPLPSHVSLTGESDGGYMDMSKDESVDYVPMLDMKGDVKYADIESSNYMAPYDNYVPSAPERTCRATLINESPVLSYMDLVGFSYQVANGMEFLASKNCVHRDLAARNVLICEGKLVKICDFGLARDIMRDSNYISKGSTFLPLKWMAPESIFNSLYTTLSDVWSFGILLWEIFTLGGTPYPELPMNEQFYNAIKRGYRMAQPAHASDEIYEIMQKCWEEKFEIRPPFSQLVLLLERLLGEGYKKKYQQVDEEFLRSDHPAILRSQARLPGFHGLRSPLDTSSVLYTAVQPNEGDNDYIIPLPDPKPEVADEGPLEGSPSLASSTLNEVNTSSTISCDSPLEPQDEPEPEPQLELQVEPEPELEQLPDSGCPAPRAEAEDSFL
SMILES,IC50 [1] [nM],IC50 [2] [nM],IC50 [3] [nM],IC50 [4] [nM]
O=C1Nc2cc(-c3ccccc3)ccc2/C1=C/c1[nH]cc2c1CCNC2=O,5700,,,
O=C1Nc2ccc(C(=O)O)cc2/C1=C/c1[nH]cc2c1CCNC2=O,68,,,
COc1ccc2c(c1)/C(=C/c1[nH]cc3c1CCOC3=O)C(=O)N2,40,> 20000,> 20000,> 20000
O=C1Nc2cccc(CCO)c2/C1=C/c1[nH]cc2c1CCNC2=O,340,,,
O=C1Nc2ccc(C(=O)O)cc2/C1=C/c1[nH]cc2c1CCOC2=O,4,> 20000,6200,> 20000
CNS(=O)(=O)c1ccc2c(c1)/C(=C/c1[nH]cc3c1CCNC3=O)C(=O)N2,9,,,
O=C1Nc2ccc(Br)cc2/C1=C/c1[nH]cc2c1CCOC2=O,190,18000,11000,> 20000
O=C1Nc2cccc(CCO)c2/C1=C/c1[nH]cc2c1CCOC2=O,30,> 20000,1200,> 20000
CC(C)NS(=O)(=O)c1ccc2c(c1)/C(=C/c1[nH]cc3c1CCOC3=O)C(=O)N2,64,> 20000,6700,> 20000
COc1ccc2c(c1)/C(=C/c1[nH]cc3c1CCNC3=O)C(=O)N2,250,,,
COc1ccc2c(c1)NC(=O)/C2=C\c1[nH]cc2c1CCOC2=O,1500,1400,> 20000,> 20000

# More lines, now with the values ahead:
IC50 [1] [nM],IC50 [2] [nM],IC50 [3] [nM],IC50 [4] [nM],SMILES
4,> 20000,6600,> 20000,CNS(=O)(=O)c1ccc2c(c1)/C(=C/c1[nH]cc3c1CCOC3=O)C(=O)N2
> 10000,1100,2000,8400,O=C1Nc2cc(-c3ccccc3)ccc2/C1=C/c1[nH]cc2c1CCOC2=O
82,> 20000,10000,> 20000,O=C1Nc2ccc(F)cc2/C1=C/c1[nH]cc2c1CCOC2=O
68,,,,CN(C)S(=O)(=O)c1ccc2c(c1)/C(=C/c1[nH]cc3c1CCNC3=O)C(=O)N2
88,2100,> 20000,> 20000,O=C1Nc2ccc(Cl)cc2/C1=C/c1[nH]cc2c1CCOC2=O
300,,,,O=C1Nc2ccc(F)cc2/C1=C/c1[nH]cc2c1CCNC2=O
49,,,,O=C1Nc2cccc(C3CCNCC3)c2/C1=C/c1[nH]cc2c1CCNC2=O
530,,,,O=C1Nc2ccc(Br)cc2/C1=C/c1[nH]cc2c1CCNC2=O
33,> 20000,> 20000,> 20000,CN(C)S(=O)(=O)c1ccc2c(c1)/C(=C/c1[nH]cc3c1CCOC3=O)C(=O)N2
270,> 20000,> 20000,> 20000,Cc1cccc2c1/C(=C/c1[nH]cc3c1CCOC3=O)C(=O)N2
9,1100,490,1100,O=C1Nc2cccc(C3CCNCC3)c2/C1=C/c1[nH]cc2c1CCOC2=O
12,> 20000,6600,13000,NS(=O)(=O)c1ccc2c(c1)/C(=C/c1[nH]cc3c1CCOC3=O)C(=O)N2
